Patent US20230158025A1 (UNIVERSITY OF UTAH RESEARCH FOUNDATION, priority 2020, published 2023)
Like-named read-outs stand apart in the source and are kept apart here.

Experiments:
recombinant human GALK1 = recombinant human GALK1 (Homo sapiens, UniProt P51570); experiment: hGALK1 biochemical activity assay (Kinase-Glo Plus, ATP depletion)
How it was run: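 Recombinant human or mouse GALK1 (5 nM, with 100 μM galactose, in the added enzyme solution) was run with ATP (35 μM in the substrate solution) in HEPES pH 8.0 buffer. Compounds were tested at 11 1/3-step concentrations from 57.4 μM to 0.97 nM. After 1 h at room temperature, remaining ATP was read by Kinase-Glo Plus luminescence.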

recombinant mouse GALK1 = recombinant mouse GALK1 (Mus musculus, UniProt Q9R0N0); experiment: mGALK1 biochemical activity assay (Kinase-Glo Plus, ATP depletion)
How it was run: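 Recombinant GALK1 (5 nM) with 100 μM galactose; GALK1 turnover read as ATP depletion by Kinase-Glo Plus luminescence. Reaction ran 1 h at room temperature before detection reagent was added.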

[1] = rat microsomal stability (RLM)
[2] = aqueous kinetic solubility
[3] = recombinant human GALK1, Kinase-Glo Plus ATP depletion, read-out: hGALK
[4] = recombinant mouse GALK1, Kinase-Glo Plus ATP depletion, read-out: mGALK
[5] = Tables 2-15, 35 μM ATP, 100 μM galactose, 1 h, bracketed figure after some values (e.g. −1.2) is undefined and not reported, read-out: hGALK IC50
[6] = Tables 2-15, 35 μM ATP, 100 μM galactose, 1 h, bracketed figure after some values is undefined and not reported, read-out: mGALK IC50
[7] = microsomal stability half-life, minutes
[8] = recombinant human GALK1, Kinase-Glo Plus ATP depletion, bracketed figure in the cell, e.g. (−1.2), is not defined in the text shown, read-out: hGALK
[9] = recombinant mouse GALK1, Kinase-Glo Plus ATP depletion, bracketed figure in the cell, e.g. (−1.2), is not defined in the text shown, read-out: mGALK

recombinant human GALK1, sequence (P51570 whole entry): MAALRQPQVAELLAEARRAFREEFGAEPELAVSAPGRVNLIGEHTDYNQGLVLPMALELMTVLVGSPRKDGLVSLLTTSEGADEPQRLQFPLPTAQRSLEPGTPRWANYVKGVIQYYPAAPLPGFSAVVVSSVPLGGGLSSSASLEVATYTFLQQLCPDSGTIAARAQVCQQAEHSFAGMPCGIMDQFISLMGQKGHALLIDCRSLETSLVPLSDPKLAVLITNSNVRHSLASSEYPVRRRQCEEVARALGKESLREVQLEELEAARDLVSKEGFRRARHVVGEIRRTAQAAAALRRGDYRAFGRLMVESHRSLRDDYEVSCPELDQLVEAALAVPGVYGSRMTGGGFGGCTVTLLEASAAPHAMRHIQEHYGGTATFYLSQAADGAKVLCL
recombinant mouse GALK1, sequence (Q9R0N0 whole entry): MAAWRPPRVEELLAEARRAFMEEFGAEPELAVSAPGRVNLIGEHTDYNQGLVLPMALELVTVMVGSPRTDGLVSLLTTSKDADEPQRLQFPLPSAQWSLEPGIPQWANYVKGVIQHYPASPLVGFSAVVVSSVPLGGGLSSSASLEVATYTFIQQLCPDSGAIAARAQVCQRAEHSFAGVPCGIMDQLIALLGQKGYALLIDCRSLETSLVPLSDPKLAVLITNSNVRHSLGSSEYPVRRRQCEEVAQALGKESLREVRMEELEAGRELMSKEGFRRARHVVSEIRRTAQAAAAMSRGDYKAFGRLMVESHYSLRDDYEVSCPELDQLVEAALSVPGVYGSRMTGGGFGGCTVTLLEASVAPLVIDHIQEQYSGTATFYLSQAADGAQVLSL

Perm. (1 × 10^−6 cm/sec) (PAMPA permeability)	IC50 (recombinant human GALK1; [3])	IC50 (recombinant mouse GALK1; [4])	Metab. Stabil. (m) ([1]; microsomal half-life)	Sol. [2]	IC50 (recombinant human GALK1; [5])	IC50 (recombinant mouse GALK1; [6])	Perm. (1 × 10^−6 cm/sec) (PAMPA permeability; PAMPA)	Sol. ([2]; aqueous kinetic solubility)	Metab. Stabil. (m) ([1]; microsomal stability half-life)	SMILES	other results
29.6 1 × 10^−6 cm/sec	1.54 µM	19.3 µM	>30 m	54.0 µg/mL						CC1=C(C(=O)Nc2cc(C(=O)O)ccc2Cl)C(c2ccccc2Cl)N=C(Nc2nc3ccc(F)cc3o2)N1 (stereo not drawn) [Compound 29, 4-chloro-3-(4-(2-chlorophenyl)-2-((6-fluorobenzo[d]oxazol-2-yl)amino)-6-methyl-1,4-dihydropyrimidine-5-carboxamido)benzoic acid]	
<1 1 × 10^−6 cm/sec	5.44 µM	34.3 µM	>30 m	>81 µg/mL	5.44 µM	34.3 µM				COc1ccc([C@H]2N=C(Nc3nc4cccc(N)c4o3)NC(C)=C2C(=O)Nc2cc(C(=O)O)ccn2)c(Cl)c1 [Compound 86, (S)-2-(2-((7-aminobenzo[d]oxazol-2-yl)amino)-4-(2-chloro-4-methoxyphenyl)-6-methyl-1,4-dihydropyrimidine-5-carboxamido)isonicotinic acid]	
							190.9 1 × 10^−6 cm/sec	50.9 µg/mL		CC1=C(C(=O)Nc2nncs2)C2(Cc3ccccc32)N=C(Nc2nc3ccccc3o2)N1 (stereo not drawn) [Compound 259, 2′-(benzo[d]oxazol-2-ylamino)-6′-methyl-N-(1,3,4-thiadiazol-2-yl)-1′H-spiro[bicyclo[4.2.0]octane-7,4′-pyrimidine]-1,3,5-triene-5′-carboxamide]	hGALK (μM) (recombinant human GALK1; recombinant human GALK1, Kinase-Glo Plus ATP depletion, bracketed figure in the cell, e.g. (−1.2), is not defined in the text shown): in- active; mGALK (μM) (recombinant mouse GALK1; recombinant mouse GALK1, Kinase-Glo Plus ATP depletion, bracketed figure in the cell, e.g. (−1.2), is not defined in the text shown): in- active; Metab. Stabil. (m) [1, 7]: >30 m
							746.9 1 × 10^−6 cm/sec	12.8 µg/mL		CC1=C(C(=O)Nc2nncs2)C(c2nn(C)cc2Cl)N=C(Nc2nc3ccccc3o2)N1 (stereo not drawn) [Compound 253, 2-(benzo[d]oxazol-2-ylamino)-4-(4-chloro-1-methyl-1H-pyrazol-3-yl)-6-methyl-N-(1,3,4-thiadiazol-2-yl)-1,4-dihydropyrimidine-5-carboxamide]	IC50 (recombinant human GALK1; [8]): 7.69 µM; IC50 (recombinant mouse GALK1; [9]): 17.2 µM; Metab. Stabil. (m) [1, 7]: >30 m
<1 1 × 10^−6 cm/sec	3.43 µM	21.7 µM	>30 m	>78 µg/mL	3.43 µM	21.7 µM				CC1=C(C(=O)Nc2cc(C(=O)O)ccn2)[C@@H](c2ccc(C)cc2Cl)N=C(Nc2nc3cccc(N)c3o2)N1 [Compound 84, (S)-2-(2-((7-aminobenzo[d]oxazol-2-yl)amino)-4-(2-chloro-4-methylphenyl)-6-methyl-1,4-dihydropyrimidine-5-carboxamido)isonicotinic acid]	
<1 1 × 10^−6 cm/sec	0.61 µM	3.85 µM	>30 m	>81 µg/mL	0.61 µM	3.85 µM				CC1=C(C(=O)Nc2cc(C(=O)O)ccn2)C(c2ccc(C#N)cc2Cl)N=C(Nc2nc3ccc(F)cc3o2)N1 (stereo not drawn) [Compound 66, 2-(4-(2-chloro-4-cyanophenyl)-2-((6-fluorobenzo[d]oxazol-2-yl)amino)-6-methyl-1,4-dihydropyrimidine-5-carboxamido)isonicotinic acid]	
	3.43 µM	6.85 µM					306.7 1 × 10^−6 cm/sec	<1 µg/mL	19.99 m	COC(=O)c1ccnc(NC(=O)C2=C(C)NC(Nc3nc4ccccc4o3)=N[C@H]2c2ccccc2Cl)c1 [Compound 206, (R)-methyl 2-(2-(benzo[d]oxazol-2-ylamino)-4-(2-chlorophenyl)-6-methyl-1,4-dihydropyrimidine-5-carboxamido)isonicotinate]	
<1.3 1 × 10^−6 cm/sec	6.11 µM	34.3 µM	>30 m	>76 µg/mL	6.11 µM	34.3 µM				CC1=C(C(=O)Nc2cc(C(=O)O)ccn2)[C@@H](c2ccccc2Cl)N=C(Nc2nc3cccc(N)c3o2)N1 [Compound 25, (S)-2-(2-((7-aminobenzo[d]oxazol-2-yl)amino)-4-(2-chlorophenyl)-6-methyl-1,4-dihydropyrimidine-5-carboxamido)isonicotinic acid]	
6.6 1 × 10^−6 cm/sec	7.69 µM	21.7 µM	>30 m	8.1 µg/mL	7.69 µM	21.7 µM				CC1=C(C(=O)Nc2cc(C(=O)O)ccn2)C(c2ccc(-c3ccc(C(F)(F)F)cc3)cc2Cl)N=C(Nc2nc3ccc(F)cc3o2)N1 (stereo not drawn) [Compound 68, 2-(4-(3-chloro-4′-(trifluoromethyl)-[1,1′-biphenyl]-4-yl)-2-((6-fluorobenzo[d]oxazol-2-yl)amino)-6-methyl-1,4-dihydropyrimidine-5-carboxamido)isonicotinic acid]	
	6.85 µM	4.32 µM			6.85 µM	4.32 µM	462.5 1 × 10^−6 cm/sec	<1 µg/mL	1.742 m	COC(=O)c1ccccc1CNC(=O)C1=C(C)NC(Nc2nc3ccccc3o2)=NC1c1ccccc1Cl (stereo not drawn) [Compound 222, methyl 2-((2-(benzo[d]oxazol-2-ylamino)-4-(2-chlorophenyl)-6-methyl-1,4-dihydropyrimidine-5-carboxamido)methyl)benzoate]	
	4.32 µM	10.9 µM			4.32 µM	10.9 µM		<1 µg/mL	15.91 m	COC(=O)c1cnc(NC(=O)C2=C(C)NC(Nc3nc4ccccc4o3)=NC2c2ccccc2Cl)s1 (stereo not drawn) [Compound 185, methyl 2-(2-(benzo[d]oxazol-2-ylamino)-4-(2-chlorophenyl)-6-methyl-1,4-dihydropyrimidine-5-carboxamido)thiazole-5-carboxylate]	Papp (PAMPA permeability; PAMPA, Perm. (1 × 10^−6 cm/sec)): < 76 nm/s
	6.85 µM	12.2 µM				12.2 µM	513.0 1 × 10^−6 cm/sec	<1 µg/mL	20 m	CC1=C(C(=O)Nc2cccnc2)C(c2ccccc2Cl)N=C(Nc2nc3ccccc3o2)N1 (stereo not drawn) [Compound 149, 2-(benzo[d]oxazol-2-ylamino)-N-(pyridin-3-yl)-4-(2-chlorophenyl)-6-methyl-1,4-dihydropyrimidine-5-carboxamide]	
		7.69 µM				7.69 µM	2.0 1 × 10^−6 cm/sec	<1 µg/mL	>30 m	CC1=C(C(=O)Nc2ccc(Cl)cc2)C(c2ccccc2Cl)N=C(Nc2nc3ccccc3o2)N1 (stereo not drawn) [Compound 141, 2-(benzo[d]oxazol-2-ylamino)-4-(2-chlorophenyl)-N-(4-chlorophenyl)-6-methyl-1,4-dihydropyrimidine-5-carboxamide]	hGALK IC50 (recombinant human GALK1; Tables 2-15, 35 μM ATP, 100 μM galactose, 1 h, bracketed figure after some values (e.g. −1.2) is undefined and not reported): inactive; hGALK (μM) (recombinant human GALK1; recombinant human GALK1, Kinase-Glo Plus ATP depletion): in- active

SMILES	Perm. (1 × 10^−6 cm/sec) (PAMPA permeability)	IC50 (recombinant human GALK1; [3])	IC50 (recombinant mouse GALK1; [4])	Metab. Stabil. (m) ([1]; microsomal half-life)	Sol. [2]	IC50 (recombinant human GALK1; [5])	IC50 (recombinant mouse GALK1; [6])	Perm. (1 × 10^−6 cm/sec) (PAMPA permeability; PAMPA)	Sol. ([2]; aqueous kinetic solubility)	Metab. Stabil. (m) ([1]; microsomal stability half-life)	other results
O=C(Nc1nncs1)C1=C(C(F)(F)F)NC(Nc2nc3ccccc3o2)=NC1c1ccccc1Cl (stereo not drawn) [Compound 246, 2-(benzo[d]oxazol-2-ylamino)-4-(2-chlorophenyl)-N-(1,3,4-thiadiazol-2-yl)-6-(trifluoromethyl)-1,4-dihydropyrimidine-5-carboxamide]								715.1 1 × 10^−6 cm/sec	21.9 µg/mL		IC50 (recombinant human GALK1; [8]): 13.7 µM; IC50 (recombinant mouse GALK1; [9]): 17.2 µM; Metab. Stabil. (m) [1, 7]: >30 m
